Here are results for three compounds from patent US20250282827A1, “LIPIDATED POLYMYXIN ANALOGUES” (priority 2021, published 2025).

In brackets after ≈: the same amount, converted by molar mass. Read-outs that look alike come from different tables or passages of the source. Positions of bridges follow the written chain, without caps; N, C: chain ends. Non-standard residues stand in square brackets, D forms with d. Residues, ends and D or L forms follow the SMILES beside them. *: point of attachment. Ethyl(2-propionyloxy) = CCC(=O)OCC*; Ethyl(2-OPiv) = CC(C)(C)C(=O)OCC*; Dab = NCC[C@H](N)C(=O)O Bounds are passed on as bounds.

One series relates to Vero cell line. The series can be described thus: Cellular toxicity against Vero cell line. Type of series: cell-based. On the procedure: (§1) FIG. 6 is a graph showing cell survival as a function of the indicated compound concentration. Data are representative of triplicate experiments.
(§2) To evaluate if the ClipPA modifications introduced any new toxicity, inhibitory concentrations against Vero and HaCaT cell lines were determined. […] The standard error for each measurement is shown.

Another series has as its system A. baumannii ATCC 19606. It counts as cell-based, Acinetobacter baumannii. From the text:
(§3) All 81 compounds prepared in Examples 2 and 3 underwent screening against a panel of Gram-negative bacterium to assess their ability to inhibit bacterial growth. […] The median value is presented.

Series [1] concerns colistin-resistant E. coli. It counts as cell-based, Escherichia coli. An excerpt:
(§4) Given the promising antimicrobial activity and low toxicity associated with compounds 29, 35 and to a lesser extent 38, these compounds were progressed to a further round of phenotypic antimicrobial susceptibility testing using a panel of clinically relevant multidrug resistant Gram-negative pathogens. This panel included isolates phenotypically characterised as carbapenem-resistant Enterobacteriacea (CRE), extended spectrum β-lactamase (ESBL) producing Enterobacteriacea, colistin-resistant E. coli, carbapenem-resistant Acinetobacter baumannii (CRAB) or carbapenem-resistant Pseudomonas aeruginosa (CRPA). These isolates were chosen because each was resistant to multiple different families of clinically used antibiotics making treatment options limited and importantly, each of these pathogen types are recognised as “Priority 1: CRITICAL” on the World Health Organization (WHO) priority pathogen list for R&D of new antibiotics. Antimicrobial activity against any of these pathogens would therefore be of clinical importance. […] However, we note that many of the compounds tested in Example 4 did show good activity against colistin-resistant E. coli.

The test system of the next series is E. coli ATCC 25922. It counts as cell-based, Escherichia coli.
Excerpt: as §3

In series [2] the test system is K. pneumoniae ATCC MS6671. Type of series: cell-based, Klebsiella pneumoniae.
Excerpt: as §3

Series [3] deals with K. pneumoniae ATCC 700603. Type of series: cell-based, Klebsiella pneumoniae.
Excerpt: as §3

The next series has as its system K. pneumoniae ATCC 33495. It counts as cell-based, Klebsiella pneumoniae.
Excerpt: as §3

In a further series the test system is P. aeruginosa ATCC 27853. Type of series: cell-based, Pseudomonas aeruginosa.
Excerpt: as §3

The next series concerns HaCaT cell line. Kind of series: Cellular toxicity against HaCaT cell line. It counts as cell-based. The protocol: as §1, §2
A further series has as its system E. coli ATCC MS8345. Type of series: cell-based, Escherichia coli.
Excerpt: as §3
Expansion of the polymyxin macrocycle by substituting […]) offered little advantage in antimicrobial activity but was generally well tolerated although for A. baumanni and P. aeruginosa this was detrimental.

The subject of series [4] is carbapenem-resistant Enterobacteriacea (CRE). It counts as cell-based.
Excerpt: as §4

Series [5] deals with carbapenem-resistant Pseudomonas aeruginosa (CRPA). Type of series: cell-based.
Excerpt: as §4

The subject of series [6] is carbapenem-resistant Acinetobacter baumannii (CRAB). Type of series: cell-based.
Excerpt: as §4

Series [7] deals with kidney organoids derived from human induced pluripotent stem cells. Kind of series: Nephrotoxicity on kidney organoids, renal tubule deterioration by bright field imaging. Note: key: 1 = unaffected; 2 = mild deterioration; 3 = severe deterioration; 4 = complete deterioration. Type of series: cell-based. Particulars: scored after 48 h. The protocol:
Selected polymyxin analogues were evaluated for cytotoxicity in physiologically relevant human kidney tissue, using kidney organoids derived from human induced pluripotent stem cells (Soo et al. 2018). Monolipidated analogues 29, 31, 33, containing a propyl, decyl or phenyl lipid, dilapidated compounds, 35, 38, 39, containing a propyl, tert-butyl or phenyl, lipid, respectively and the N-capped, di-lipidated (phenyl) 49 were selected.
The control compound polymyxin B and the seven ClipPA analogues were tested by adding a range of concentrations (based on Gallado-Godoy et al. 2016) to the organoids at day 12 of the protocol, shown previously to correspond to optimal maturity of the organoid tissues.
Toxicity was scored after 48 h for signs of renal tubule deterioration visible by bright field imaging (not shown).

In series [8] the test system is extended spectrum β-lactamase (ESBL) producing Enterobacteriacea. It counts as cell-based.
Excerpt: as §4

On to `CCC(=O)OCCSC[C@H](N)C(=O)N[C@@H](CCN)C(=O)N[C@H](C(=O)N[C@@H](CCN)C(=O)N[C@H]1CCNC(=O)[C@H]([C@@H](C)O)NC(=O)[C@H](CCN)NC(=O)[C@H](CCN)NC(=O)[C@H](CC(C)C)NC(=O)[C@@H](Cc2ccccc2)NC(=O)[C@H](CCN)NC1=O)[C@@H](C)O` [Compound 29] (H-C(Ethyl(2-propionyloxy))[Dab]T[Dab][Dab][Dab][dF]L[Dab][Dab]T; lactam 5-C), for which the “IC50 Vero” value with Vero cell line is 2422 ± 38.98 µg/mL (≈ 1910 µM). In addition, the “amount required to cause inhibition” value in the series with Vero cell line and with HaCaT cell line was > 500 µg/mL in each case. Further, the “fold less toxic towards Vero than Colistin or Polymyxin B” value in the series with Vero cell line was ~2.5 fold. For the same compound, the “MIC A. baumannii ATCC 19606” value in the series with A. baumannii ATCC 19606 (ATCC 19606) was 2 µg/mL (≈ 1.58 µM). For the same compound, the MIC (commonly the smallest concentration in the dilution series that meets the test's criterion for growth inhibition) in series [1] (colistin-resistant) is >32 mg/L; in [4] (E. cloacae, IMP-4) it was 2 mg/L (≈ 1.58 µM); in series [4] (E. coli, NDM-1), 2 mg/L (≈ 1.58 µM); in series [4] (K. pneumoniae, KPC-2), 2 mg/L (≈ 1.58 µM); in series [4] (K. pneumoniae, NDM-5), 2 mg/L (≈ 1.58 µM); in [5] (carbapenem-resistant (CRPA)) it was >32 mg/L. The compound also returned an MIC in series [6] (carbapenem-resistant (CRAB)) of 4 mg/L (≈ 3.16 µM). Also, the “MIC E. coli ATCC 25922” value with E. coli ATCC 25922 (ATCC 25922) was 2 µg/mL (≈ 1.58 µM). For the same compound, the “MIC K. pneumoniae ATCC MS6671” value in [2] (ATCC MS6671) is >32 µg/mL. Also, in [3] (ATCC 700603), the “MIC K. pneumoniae ATCC 700603” value came to 0.5 µg/mL (≈ 0.395 µM). The “MIC K. pneumoniae ATCC 33495” value against K. pneumoniae ATCC 33495 (ATCC 33495) worked out at 0.125 µg/mL (≈ 0.0987 µM). In addition, the “MIC P. aeruginosa ATCC 27853” value in the series with P. aeruginosa ATCC 27853 (ATCC 27853) was found to be 2 µg/mL (≈ 1.58 µM). Moreover, the “IC50 HaCaT” value in the series with HaCaT cell line was determined as 2534 ± 169.2 µg/mL (≈ 2000 µM). Moreover, in the series on HaCaT cell line, the “inhibitory effects against HaCaT compared with Colistin or Polymyxin B” value is “comparable”. In addition, the “MIC E. coli ATCC MS8345” value in the series with E. coli ATCC MS8345 (ATCC MS8345) is 32 µg/mL (≈ 25.3 µM).

As to `C[C@@H](O)[C@@H]1NC(=O)[C@H](CCN)NC(=O)[C@H](CCN)NC(=O)[C@H](CSCCOC(=O)C(C)(C)C)NC(=O)[C@@H](Cc2ccccc2)NC(=O)[C@H](CCN)NC(=O)[C@@H](NC(=O)[C@H](CCN)NC(=O)[C@@H](NC(=O)[C@H](CCN)NC(=O)[C@@H](N)CSCCOC(=O)C(C)(C)C)[C@@H](C)O)CCNC1=O` [Compound 38] (H-C(Ethyl(2-OPiv))[Dab]T[Dab][Dab][Dab][dF]C(Ethyl(2-OPiv))[Dab][Dab]T; lactam 5-C), the “MIC A. baumannii ATCC 19606” value in the series with A. baumannii ATCC 19606 (ATCC 19606) amounted to 2 µg/mL (≈ 1.42 µM). Moreover, the MIC in series [1] (colistin-resistant) was 16 mg/L (≈ 11.3 µM); in [4] (E. cloacae, IMP-4), 2 mg/L (≈ 1.42 µM); in series [4] (E. coli, NDM-1), 2 mg/L (≈ 1.42 µM); in [4] (K. pneumoniae, KPC-2), 2 mg/L (≈ 1.42 µM); in series [4] (K. pneumoniae, NDM-5) it was 2 mg/L (≈ 1.42 µM); in series [5] (carbapenem-resistant (CRPA)), >32 mg/L. This compound also had an MIC in series [6] (carbapenem-resistant (CRAB)) of 2 mg/L (≈ 1.42 µM). Besides, the “MIC E. coli ATCC 25922” value in the series with E. coli ATCC 25922 (ATCC 25922) is 0.5 µg/mL (≈ 0.354 µM). Besides, the “MIC K. pneumoniae ATCC MS6671” value in [2] (ATCC MS6671) was >32 µg/mL. In addition, the “MIC K. pneumoniae ATCC 700603” value in series [3] (ATCC 700603) was found to be 0.5 µg/mL (≈ 0.354 µM). For the same compound, the “MIC K. pneumoniae ATCC 33495” value with K. pneumoniae ATCC 33495 (ATCC 33495) turned out to be 0.5 µg/mL (≈ 0.354 µM). For the same compound, the “MIC P. aeruginosa ATCC 27853” value with P. aeruginosa ATCC 27853 (ATCC 27853) was 4 µg/mL (≈ 2.83 µM). Besides, the “MIC E. coli ATCC MS8345” value against E. coli ATCC MS8345 (ATCC MS8345) came to 16 µg/mL (≈ 11.3 µM).

Polymyxin B [PMB, reference compound]: the “IC50 Vero” value in the series on Vero cell line (Vero cell line, ± standard error) was determined as 939.0 ± 63.32 µg/mL. Also, the figures for the “Score (nephrotoxicity on kidney organoids)” value in [7] (100 μM), in series [7] (300 μM) and in series [7] (1 mM) were 2, 3 and 4, respectively. For the same compound, the “MIC A. baumannii ATCC 19606” value in the series with A. baumannii ATCC 19606 (median of triplicate) was found to be 0.5 µg/mL. For the same compound, the MIC in series [1] (E. coli, CR (colistin-resistant), MCR-1) stood at 8 mg/L; in [4] (E. cloacae, IMP-4), 1 mg/L; in series [4] (E. coli, NDM-1) it was 1 mg/L; in series [4] (K. pneumoniae, KPC-2), 2 mg/L; in [4] (K. pneumoniae, NDM-5), 2 mg/L; in series [5] (P. aeruginosa, CRPA, VIM-2), 8 mg/L. For the same compound, the MIC in series [8] (E. coli, CTX-M-15) was 1 mg/L; in [8] (S. enterica, CTX-M-55), 2 mg/L; in series [6] (A. baumannii, CRAB, OXA-23), 1 mg/L. For the same compound, the “susceptibility of colistin-resistant E. coli in words” value in series [1] (in words) was “resistant”. Moreover, the “MIC E. coli ATCC 25922” value with E. coli ATCC 25922 (median of triplicate) was determined as 0.25 µg/mL. Also, the “MIC K. pneumoniae ATCC MS6671” value in [2] (median of triplicate) is >32 µg/mL. Besides, in [3] (median of triplicate), the “MIC K. pneumoniae ATCC 700603” value stood at 0.25 µg/mL. Also, the “MIC K. pneumoniae ATCC 33495” value with K. pneumoniae ATCC 33495 (median of triplicate) was found to be 0.5 µg/mL. Moreover, the “MIC P. aeruginosa ATCC 27853” value with P. aeruginosa ATCC 27853 (median of triplicate) was found to be 0.25 µg/mL. Besides, the “IC50 HaCaT” value in the series with HaCaT cell line (HaCaT cell line, ± standard error) stood at 1998 ± 27.74 µg/mL. In addition, the “MIC E. coli ATCC MS8345” value against E. coli ATCC MS8345 (colistin-resistant strain, median of triplicate) worked out at 4 µg/mL. The “susceptibility of CRPA in words” value in [5] (in words) was “resistant”.
